Test results reported in publication doi:10.1101/2025.10.30.685166v1 (biorxiv, 2025).

Tests used:
[1] = target: T1, Hco-UNC-49B homomeric channel (Haemonchus contortus, UniProt D6BK80); test: cell-based
T1 sequence (D6BK80 22-496): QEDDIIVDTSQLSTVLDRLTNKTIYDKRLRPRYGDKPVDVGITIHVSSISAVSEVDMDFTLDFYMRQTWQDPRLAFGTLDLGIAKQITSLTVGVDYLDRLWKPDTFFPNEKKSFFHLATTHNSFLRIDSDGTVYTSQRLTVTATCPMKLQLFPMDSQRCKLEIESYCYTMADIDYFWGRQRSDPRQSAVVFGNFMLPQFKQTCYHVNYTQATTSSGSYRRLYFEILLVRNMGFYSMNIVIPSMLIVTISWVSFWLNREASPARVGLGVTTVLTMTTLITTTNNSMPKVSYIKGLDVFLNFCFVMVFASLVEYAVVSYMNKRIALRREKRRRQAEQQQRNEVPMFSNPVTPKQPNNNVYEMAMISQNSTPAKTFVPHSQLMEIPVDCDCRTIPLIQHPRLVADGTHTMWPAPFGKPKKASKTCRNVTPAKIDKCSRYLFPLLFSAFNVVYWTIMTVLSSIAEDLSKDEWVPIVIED

[2] = target: T2, Hco-UNC-49B/Hco-UNC-49C heteromeric channel (Haemonchus contortus, UniProt D6BJF3+D6BK80); test: cell-based
T2 sequence (D6BK80 22-496): T1 sequence (D6BK80 22-496)
T2 sequence (D6BJF3 22-440): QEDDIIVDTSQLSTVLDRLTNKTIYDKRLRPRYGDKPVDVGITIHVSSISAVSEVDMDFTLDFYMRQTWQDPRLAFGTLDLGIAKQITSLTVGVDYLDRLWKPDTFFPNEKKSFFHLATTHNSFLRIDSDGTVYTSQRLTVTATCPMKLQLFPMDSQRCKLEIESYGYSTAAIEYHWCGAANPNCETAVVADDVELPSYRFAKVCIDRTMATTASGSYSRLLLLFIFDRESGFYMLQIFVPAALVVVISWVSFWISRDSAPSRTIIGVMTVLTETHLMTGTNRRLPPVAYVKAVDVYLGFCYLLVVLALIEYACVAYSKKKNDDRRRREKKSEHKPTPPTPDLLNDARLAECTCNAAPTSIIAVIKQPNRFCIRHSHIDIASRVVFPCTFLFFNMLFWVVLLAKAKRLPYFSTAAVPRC

NCCCC(=O)O [GABA]
EC50 [1]: 137 ± 7 µM
EC50 [2]: 84.9 ± 4 µM
